Assay results published in US20100061994A1, “MEDICAL USES OF 39-DESMETHOXYRAPAMYCIN AND ANALOGUES THEREOF” (priority 2005, published 2010).

Tests used:
[1] = system: NCI 60 cell line panel; assay: NCI 60 cell line panel monolayer proliferation assay (Protocol 2, SRB) with COMPARE analysis; format: cell-based, human; details: with the exception of one cell line
Procedure: The COMPARE analysis uses a Pearson analysis to compare the activity of two compounds on the NCI 60-cell line panel and produces a correlation coefficient which indicates how similar the two compounds spectra of activity are and this may indicate how related their mechanism's of action are.
The human tumor cell lines of the National Cancer Institute (NCI) cancer screening panel were grown in RPMI 1640 medium containing 5% fetal bovine serum and 2 mM L-glutamine (Boyd and Paull, 1995). Cells were inoculated into 96 well microtiter plates in 0.1 mL at plating densities ranging from 5,000 to 40,000 cells/well depending on the doubling time of individual cell lines. […]
Following drug addition, the plates were incubated for an additional 48 h at 37° C., 5% CO2, 95% air, and 100% relative humidity. […] Bound stain was subsequently solubilized with 10 mM trizma base, and the absorbance was read on an automated plate reader at a wavelength of 515 nm. […] Using the seven absorbance measurements [time zero, (Tz), control growth, (C), and test growth in the presence of drug at the five concentration levels (Ti)], the percentage growth was calculated at each of the drug concentrations levels. Percentage growth inhibition was calculated as:
Three dose response parameters were calculated for each experimental agent. […] The drug concentration resulting in total growth inhibition (TGI) was calculated from Ti=Tz. […]

[2] = system: Caco-2 cells; assay: Caco-2 permeation assay; details: 0.01 mM
Procedure: Confluent Caco-2 cells (Li, A. P., 1992; Grass, G. M., et al., 1992, Volpe, D. A., et al., 2001) in a 24 well Corning Costar Transwell format were provided by In Vitro Technologies Inc. (IVT Inc., Baltimore, Md., USA). The apical chamber contained 0.15 mL Hank's balanced buffer solution (HBBS) pH 7.4, 1% DMSO, 0.1 mM Lucifer Yellow. The basal chamber contained 0.6 mL HBBS pH 7.4, 1% DMSO. Controls and tests were incubated at 37° C. in a humidified incubator, shaken at 130 rpm for 1 h. Lucifer Yellow permeates via the paracellular (between the tight junctions) route only, a high Apparent Permeability (Papp) for Lucifer Yellow indicates cellular damage during assay and all such wells were rejected. […] Compounds were tested in a uni- and bi-directional format by applying compound to the apical or basal chamber (at 0.01 mM). Compounds in the apical or basal chambers were analysed by HPLC-MS (Method A, see Materials & Methods). Results were expressed as Apparent Permeability, Papp, (nm/s) and as the Flux Ratio (A to B versus B to A).
[formula] • Volume Acceptor: 0.6 ml (A>B) and 0.15 ml (B>A) • Area of monolayer: 0.33 cm2 • Δtime: 60 min
A positive value for the Flux Ratio indicates active efflux from the apical surface of the cells.

`COC1CC2CCC(C)C(O)(O2)C(=O)C(=O)N2CCCCC2C(=O)OC(C(C)CC2CCC(O)CC2)CC(=O)C(C)C=C(C)C(O)C(OC)C(=O)C(C)CC(C)C=CC=CC=C1C` (stereo not drawn) [39-desmethoxyrapamycin] was tested, and the “efficacy against high MDR-expressing cell lines when compared to rapamycin” value [1] was “equivalent or improved efficacy”, the “Caco-2: Efflux Ratio” value ([2]; bi-directional format) was 15 and the “Caco-2: Papp” value ([2]; pH 7.4, 1 h) was 29 nm/s.
